Data on four molecules can be found in article PMC5537699 (ACS Omega, 2017).

Read-outs that look alike come from different tables or passages of the source.

The target of series [1] is pig kidney Na+/K+-ATPase (PKE) (Sus scrofa, UniProt P05024). Kind of series: Na+/K+-ATPase activity assay, purified pig kidney enzyme. In kind it is biochemical. To be noted: for Ki: 1% DMSO, PKE-1 or PKE-2, optimal turnover conditions (Figure 3).
The target of series [2] is human kidney Na+/K+-ATPase (HKE) (Homo sapiens, UniProt P05023). Nature of the series: Na+/K+-ATPase activity assay, purified human kidney enzyme. In kind it is biochemical. To be noted: for Ki: read-out: Ki, inhibition of Na+/K+-ATPase activity of HKE-1, HKE-1, 1% DMSO, optimal turnover conditions (Figure 4A).
The subject of series [3] is recombinant human kidney enzyme (Na+/K+-ATPase). Particulars: ref 14 (Katz et al., their Table 1); cited from earlier work.
The conditions of series [4]: nearly constant levels by appropriate dosage regimens; cited from earlier work.
Series [5] has as its system purified PKE (pig kidney Na+/K+-ATPase). Particulars: ref 11 (Laursen et al., their Figure 3); cited from earlier work.
Where [6] appears, read: read-out: Ki, inhibition of Na+/K+-ATPase activity of PKE.

Turning to `C[C@]12CC[C@H](O)C[C@@]1(O)CC[C@@H]1[C@@H]2CC[C@]2(C)[C@@H](c3ccc(=O)oc3)C[C@H]3O[C@]132` [MBG, marinobufagenin], the Ki in series [1] (setting [6]) stood at 1.5 ± 0.12 µM; in series [2], 1.07 ± 0.04 µM. Moreover, the “potency relative to ouabain in Na+/K+-ATPase activity assays” value in series [2] (HKE-1 (Figure 4A)) is on record as “equally potent”. Also, in series [3], the “fold less potent than ouabain by relative binding constants” value was “about 200 fold”.
The molecule `C[C@H]1O[C@@H](O[C@H]2[C@@H](O)C[C@H](O[C@H]3[C@@H](O)C[C@H](O[C@H]4CC[C@@]5(C)[C@H](CC[C@@H]6[C@@H]5C[C@@H](O)[C@]5(C)[C@@H](C7=CC(=O)OC7)CC[C@]65O)C4)O[C@@H]3C)O[C@@H]2C)C[C@H](O)[C@@H]1O` [digoxin] gave a Ki in series [1] (Ki, inhibition of Na+/K+-ATPase activity of PKE) of 1.95 ± 0.15 µM. Moreover, the “blood levels when used clinically” value in series [4] was 0.64 to 1.15 nM.
As to `C[C@]12C[C@@H](O)[C@H]3[C@@H](CC[C@]4(O)C[C@@H](O)C[C@@H](O)[C@]34CO)[C@@]1(O)CC[C@@H]2C1=CC(=O)OC1` [ouabagenin], in series [1] (PKE (Figure 3)), the “extent of inhibition of Na+/K+-ATPase activity” value is “complete inhibition” and the “fold less potent than ouabain in Na+/K+-ATPase activity assays” value is listed as “about 3 fold”. The Ki in series [1] (setting [6]) is 3.07 ± 0.23 µM. Further, in series [2], the Ki worked out at 4.4 ± 0.27 µM. Also, in series [5], the “extent of inhibition of the enzyme” value was “only a partial inhibitor” and the “fold less potent than ouabain by relative binding constants” value was “about 800 fold”.
Turning to `C[C@@H]1O[C@@H](O[C@H]2C[C@@H](O)[C@]3(CO)[C@H]4[C@H](O)C[C@]5(C)[C@@H](C6=CC(=O)OC6)CC[C@]5(O)[C@@H]4CC[C@]3(O)C2)[C@H](O)[C@H](O)[C@H]1O` [ouabain], the “preincubation time sufficient to obtain the maximal inhibitory effect” value in series [1] (PKE-1, incubation times 10–60 min, 0.25–1000 μM) was 10 min. Further, the “ouabain sensitivity of large-scale PKE preparation versus single kidney PKEs” value in series [1] (large-scale PKE, specific activity 1035 μmol Pi mg–1 h–1, results not shown) is listed as “not significantly different”.
